Laboratory results published in US11000491B2, “Amino-aryl-benzamide compounds and methods of use thereof” (HEPANOVA, INC., priority 2017, dated 2021).
Where two headings read alike, the source gives them in different places.

Experiments:
Type in all cases: cell-based
Huh7 cells = test: LD content in Huh7 cells pre-treated with insulin, Oil-Red-O staining, absorbance OD 540 nm; settings: procedure of Example 3, read-out: LD content inhibition (EC50)
Procedure, shortened: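 Huh7 cells, mock-treated or pre-treated with 1 mM insulin, were then exposed to compound at the indicated amounts. Lipid droplets stained with Oil Red O and quantified by absorbance at OD 540 nm.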

SREBP-1 = SREBP-1 expression in cultured primary human hepatocytes; settings: procedure of Example 6, read-out: SREBP-1 mRNA inhibition (EC50)
Procedure, shortened: (§1)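 Primary human hepatocytes in culture exposed to a range of HPN-01 derivative concentrations; SREBP-1 and SREBP-2 mRNA expression then measured to assess inhibition.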

SREBP-2 = SREBP-2 expression in cultured primary human hepatocytes; settings: procedure of Example 6, read-out: SREBP-2 mRNA inhibition (EC50)
Procedure, shortened: as §1

[1] = Homo sapiens, Huh-7, Huh7 cells

EC50 (Huh7 cells; [1]) [µM] | Compound | EC50 (SREBP-1; Homo sapiens, Hepatocyte) [µM] | EC50 (SREBP-2; Homo sapiens, Hepatocyte) [µM] | EC50 (Huh7 cells; Huh7 cells) [µM] | EC50 (SREBP-1) [µM] | EC50 (SREBP-2) [µM]
0.32 | Nc1c(C(=O)Nc2ccc(O)c(O)c2)cc(-c2ccc(Cl)cc2)cc1-c1ccc(S(N)(=O)=O)cc1 [HPN-01617, 4′-amino-4-chloro-N-(3,4-dihydroxyphenyl)-4″-sulfamoyl-[1,1′:3′,1″-terphenyl]-5′-carboxamide] | 1.88 | 3.68 | – | – | –
1.43 | Nc1c(C(=O)Nc2ccc(O)c(O)c2)cc(-c2ccc(Br)cc2)cc1-c1ccc(S(N)(=O)=O)cc1 [HPN-01618, 4′-amino-4-bromo-N-(3,4-dihydroxyphenyl)-4″-sulfamoyl-[1,1′:3′,1″-terphenyl]-5′-carboxamide] | 3.57 | 6.37 | – | – | –
1.33 | COc1cccc(NC(=O)c2cc(-c3ccc(Cl)cc3)cc(-c3ccc(S(N)(=O)=O)cc3)c2N)c1 [HPN-01619, 4′-amino-4-chloro-N-(3-methoxyphenyl)-4″-sulfamoyl-[1, 1′:3′,1″-terphenyl]-5′-carboxamide] | 4.18 | 7.95 | – | – | –
22.8 | Nc1c(-c2ccc(S(N)(=O)=O)cc2)cc(-c2ccc(Br)cc2)cc1N1CCNCC1 [HPN-01622, 6′-amino-4″-bromo-5′-(piperazin-1-yl)-[1,1′:3′,1″-terphenyl]-4-sulfonamide] | 37.1 | 50.8 | – | – | –
15.3 | NC(=O)N1CCN(c2cc(-c3ccc(Cl)cc3)cc(-c3ccc(S(N)(=O)=O)cc3)c2N)CC1 [HPN-01623, 4-(4′-amino-4-chloro-4″-sulfamoyl-[1, 1′:3′,1″-terphenyl]-5′-yl)piperazine-1-carboxamide] | 38.1 | 50.1 | – | – | –
1.16 | Nc1c(C(=O)Nc2cc[nH]c2)cc(-c2ccc(Cl)cc2)cc1-c1ccc(S(N)(=O)=O)cc1 [HPN-01628, 4′-amino-4-chloro-N-(1H-pyrrol-3-yl)-4″-sulfamoyl-[1,1′:3′,1″-terphenyl]-5′-carboxamide] | 2.39 | 5.48 | – | – | –
1.37 | Nc1c(C(=O)NCc2ccc[nH]2)cc(-c2ccc(Cl)cc2)cc1-c1ccc(S(N)(=O)=O)cc1 [HPN-01629, N-((1H-pyrrol-2-yl)methyl)-4′-amino-4-chloro-4″-sulfamoyl-[1,1′:3′,1″-terphenyl]-5′-carboxamide] | 2 | 8.6 | – | – | –
2.39 | Nc1c(C(=O)NCc2cccnc2)cc(-c2ccc(Cl)cc2)cc1-c1ccc(S(N)(=O)=O)cc1 [HPN-01630, 4′-amino-4-chloro-N-(pyridin-3-ylmethyl)-4″-sulfamoyl-[1,1′:3′,1″-terphenyl]-5′-carboxamide] | 3.57 | 3.87 | – | – | –

The next lines start with the compound.

Compound | EC50 (Huh7 cells; [1]) [µM] | EC50 (SREBP-1; Homo sapiens, Hepatocyte) [µM] | EC50 (SREBP-2; Homo sapiens, Hepatocyte) [µM] | EC50 (Huh7 cells; Huh7 cells) [µM] | EC50 (SREBP-1) [µM] | EC50 (SREBP-2) [µM]
COc1cccc(NC(=O)c2cc(-c3ccc(Br)cc3)cc(-c3ccc(S(N)(=O)=O)cc3)c2N)c1 [HPN-01620, 4′-amino-4-bromo-N-(3-methoxyphenyl)-4″-sulfamoyl-[1,1′:3′,1″-terphenyl]-5′-carboxamide] | 5.36 | 5.76 | 9.22 | – | – | –
Nc1c(C(=O)Nc2cccnc2)cc(-c2ccc(Cl)cc2)cc1-c1ccc(S(N)(=O)=O)cc1 [HPN-01625, 4′-amino-4-chloro-N-(pyridin-3-yl)-4″-sulfamoyl-[1,1′:3′,1″-terphenyl]-5′-carboxamide] | 2.32 | 3.32 | 18.8 | – | – | –
Nc1c(C(=O)Nc2ccc[nH]2)cc(-c2ccc(Cl)cc2)cc1-c1ccc(S(N)(=O)=O)cc1 [HPN-01626, 4′-amino-4-chloro-N-(1H-pyrrol-2-yl)-4″-sulfamoyl-[1,1′:3′,1″-terphenyl]-5′-carboxamide] | 3.05 | 7.22 | 12.5 | – | – | –
Nc1c(C(=O)Nc2ccsc2)cc(-c2ccc(Cl)cc2)cc1-c1ccc(S(N)(=O)=O)cc1 [HPN-01627, 4′-amino-4-chloro-4″-sulfamoyl-N-(thiophen-3-yl)-[1,1′:3′,1″-terphenyl]-5′-carboxamide] | 1.2 | 1.95 | 4.31 | – | – | –
(E)-2-amino-5-(3-((4-fluorophenethyl)amino)-3-oxoprop-1-en-1-yl)-4′-sulfamoyl-[1,1′-biphenyl]-3-carboxamide [HPN-01132] | – | – | – | 0.07 | 0.36 | 1.55
(E)-2-amino-5-(3-((4-methoxyphenyl)amino)-3-oxoprop-1-en-1-yl)-4′-sulfamoyl-[1,1′-biphenyl]-3-carboxamide [HPN-01128] | – | – | – | 0.89 | 2.4 | 3.47
(E)-2-amino-5-(3-(cyclohexylamino)-3-oxoprop-1-en-1-yl)-4′-sulfamoyl-[1,1′-biphenyl]-3-carboxamide [HPN-01133] | – | – | – | 0.7 | 2.55 | 3.07
(E)-2-amino-5-(3-oxo-3-(phenylamino)prop-1-en-1-yl)-4′-sulfamoyl-[1,1′-biphenyl]-3-carboxamide [HPN-01125] | – | – | – | 0.38 | 2.8 | 4.27
(E)-2-amino-5-styryl-4′-sulfamoyl-[1,1′-biphenyl]-3-carboxamide [HPN-01101] | – | – | – | 0.57 | 2.96 | 6.98
butyl (E)-3-(6-amino-5-carbamoyl-4′-sulfamoyl-[1,1′-biphenyl]-3-yl)acrylate [HPN-01117] | – | – | – | 1.15 | 6.99 | 8.24
decyl (E)-3-(6-amino-5-carbamoyl-4′-sulfamoyl-[1,1′-biphenyl]-3-yl)acrylate [HPN-01119] | – | – | – | 1.08 | 2.71 | 4.17
furan-2-ylmethyl (E)-3-(6-amino-5-carbamoyl-4′-sulfamoyl-[1,1′-biphenyl]-3-yl)acrylate [HPN-01124] | – | – | – | 0.67 | 1.86 | 3.25
methyl (E)-3-(6-amino-4′-(amino-(methylene)sulfinyl)-5-carbamoyl-[1,1′-biphenyl]-3-yl)acrylate [HPN-01114] | – | – | – | 0.21 | 1.27 | 2.47
